From US20250122171A1, “Substituted Amine Compounds, Compositions and Methods of Use” (Deep Apple Therapeutics, Inc., priority 2023, published 2025) come the findings set out here.

For orientation: IC50 means the midpoint of a concentration-inhibition curve.

For the assay, the target named is T1, human MRGPRX2 (Homo sapiens, UniProt Q96LB1).
T1 construct: expressed in transfected cells; host or cells: FlpIn TRex HEK293 (TRex-MRGPRX2-HEK), doxycycline-induced
T1 sequence (Q96LB1 1-330): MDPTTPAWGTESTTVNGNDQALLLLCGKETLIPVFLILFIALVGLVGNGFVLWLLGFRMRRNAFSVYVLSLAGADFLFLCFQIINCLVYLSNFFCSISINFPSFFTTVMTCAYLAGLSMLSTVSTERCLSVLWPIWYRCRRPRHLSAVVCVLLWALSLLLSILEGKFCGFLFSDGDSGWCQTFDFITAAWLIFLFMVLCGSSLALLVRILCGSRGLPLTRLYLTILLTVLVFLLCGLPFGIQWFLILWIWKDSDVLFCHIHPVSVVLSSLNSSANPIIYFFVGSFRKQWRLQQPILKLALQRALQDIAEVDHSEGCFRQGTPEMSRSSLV
Put plainly: MRGPRX2 Activity Assay (IP-1 HTRF, antagonist mode). The class given is cell-based. Conditions: FlpIn TRex-MRGPRX2-HEK293 cells; versus 1 μM Cortistatin-14 agonist; 30 minutes preincubation. The procedure: FlpIn TRex-MRGPRX2-HEK293 cells (herein TRex-MRPGRX2-HEK) stably transfected to express human MRGPRX2 were maintained at 37° C. with 5% CO2 and grown in DMEM supplemented with 10% FBS, 1% L-Glutamate, 1% penicillin/streptomycin, 100 ug/mL Hygromycin B, and 15 ug/mL Blasticidin.
GOI (MRGPRX2) expression was induced with 100 ng/mL of Doxycycline 18-24 hours prior to experiment, in flask. On the day of experiment, cells were lifted with TripLE Express and seeded in 384-well white walled opaque bottomed, assay plates, at 8,000 cells per well in 5 uL freshly made assay buffer (HBSS, 20 mM HEPES, 0.1% BSA and 10 mM LiCl). Compounds solubilized in 100% DMSO at 30 mM were serially diluted (1:4) first in 100% DMSO, and an intermediate plate of assay buffer was used to establish a final top concentration of 30 uM (in assay plate). Final DMSO concentration was kept constant at 1% across assay plates. […], at 30 mM stock concentration was solubilized in HBSS+0.1% BSA, stored at −20° C. in 5 μL aliquots and discarded after one freeze-thaw cycle. […].
Antagonist equilibrium was established with 30 minutes preincubation, followed by no wash, direct addition, and stimulation of agonist for 1 hour at 37° C./5% CO2. IP-1 standards and HTRF detection reagents were added according to the IP-one Gq kit protocol purchased from CisBio (part number 62IPAPEJ). The plate was read on an EnVision XCite plate reader. The HTRF ratio was then calculated from raw data (channel1/channel2×10,000) and analyzed using either GraphPad Prism or a custom Python script to calculate IC50 using Log[Antagonist] vs. response (4 parameter) nonlinear regression.
Compound `C[C@@H](C(=O)Nc1cn2c(n1)CC[C@@H]2c1cc(F)cc(F)c1)N1CCC(F)(F)[C@H](c2ccc(=O)[nH]c2)C1` (single isomer, unassigned) [Compound 495] showed an IC50 above 30 µM.
Take `C[C@@H](C(=O)Nc1cn2c(n1)CC[C@H]2c1cc(F)cc(F)c1)N1CCC(F)(F)[C@H](c2ccc(=O)[nH]c2)C1` (single isomer, unassigned) [Compound 496]: the IC50 was 3.47 µM.
Next, `C[C@@H](C(=O)Nc1cn2c(n1)CC[C@@H]2c1cc(F)cc(F)c1)N1CCCCC1` (single isomer, unassigned) [Compound 497]: above 30 µM.
Next, `C[C@@H](C(=O)Nc1cn2c(n1)CC[C@@H]2c1cc(F)cc(F)c1)N1CCOCC1` (single isomer, unassigned) [Compound 511]: above 30 µM; `C[C@H](C(=O)Nc1cn2c(n1)CC[C@@H]2c1cc(F)cc(F)c1)N1CCOCC1` (single isomer, unassigned) [Compound 512]: 4.08 µM; `C[C@H](C(=O)Nc1cn2c(n1)CC[C@H]2c1cc(F)cc(F)c1)N1CCOCC1` (single isomer, unassigned) [Compound 513]: above 30 µM.
Next, `C[C@@H](C(=O)Nc1cn2c(n1)CC[C@H]2c1cc(F)cc(F)c1)N1CCOCC1` (single isomer, unassigned) [Compound 514]: above 30 µM.
On to `C[C@@H](C(=O)Nc1cn2c(n1)[C@H](O)C[C@@H]2c1cc(F)cc(F)c1)N1CCC(F)(F)[C@@H](c2ccc(=O)[nH]c2)C1` (single isomer, unassigned) [Compound 515], for which the concentration for half-maximal inhibition (IC50) is 4.6 µM.
Under `C[C@@H](C(=O)Nc1cn2c(n1)[C@@H](O)C[C@@H]2c1cc(F)cc(F)c1)N1CCC(F)(F)[C@@H](c2ccc(=O)[nH]c2)C1` (single isomer, unassigned) [Compound 516] stands above 30 µM; under `C[C@@H](C(=O)Nc1cn2c(n1)[C@@H](O)C[C@H]2c1cc(F)cc(F)c1)N1CCC(F)(F)[C@@H](c2ccc(=O)[nH]c2)C1` (single isomer, unassigned) [Compound 517], above 30 µM.
With `C[C@@H](C(=O)Nc1cn2c(n1)[C@H](O)C[C@H]2c1cc(F)cc(F)c1)N1CCC(F)(F)[C@@H](c2ccc(=O)[nH]c2)C1` (single isomer, unassigned) [Compound 518], the IC50 was above 30 µM.
Next, `C[C@@H](C(=O)Nc1cn2c(n1)CC[C@@H]2c1cc(F)cc(F)c1)N1CCC(F)(F)[C@@](C)(c2cc[n+]([O-])cc2)C1` (single isomer, unassigned) [Compound 519]: above 30 µM; `C[C@@H](C(=O)Nc1cn2c(n1)CC[C@@H]2c1cc(F)cc(F)c1)N1CCC(F)(F)[C@](C)(c2cc[n+]([O-])cc2)C1` (single isomer, unassigned) [Compound 520]: 0.129 µM.
Next, `C[C@@H](C(=O)Nc1cn2c(n1)CC[C@@H]2c1cc(F)cc(F)c1)N1CCC2(CC2)[C@@H](c2cc[n+]([O-])cc2)C1` (single isomer, unassigned) [Compound 521]: 4.75 µM; `C[C@@H](C(=O)Nc1cn2c(n1)CC[C@@H]2c1cc(F)cc(F)c1)N1CCC2(CC2)[C@H](c2cc[n+]([O-])cc2)C1` (single isomer, unassigned) [Compound 522]: 0.229 µM.
In turn, `C[C@@H](C(=O)Nc1cn2c(n1)CC[C@@H]2c1cc(F)cc(F)c1)N1CCC(F)(F)[C@@H](c2c[nH]c(=O)c(CO)c2)C1` (single isomer, unassigned) [Compound 523] gave an IC50 above 30 µM.
Next, `C[C@@H](C(=O)Nc1cn2c(n1)CC[C@@H]2c1cc(F)cc(F)c1)N1CCC(F)(F)[C@H](c2c[nH]c(=O)c(CO)c2)C1` (single isomer, unassigned) [Compound 524]: 0.05 µM.
Next, `C[C@@H](C(=O)Nc1cn2c(n1)CC[C@@H]2c1cc(F)cc(F)c1)N1CCC(F)(F)[C@@H](c2cc[n+]([O-])c(CO)c2)C1` (single isomer, unassigned) [Compound 525]: 5.48 µM.
